Like-named read-outs stand apart in the source and are kept apart here.
Experiments:
Nerve injured rats = test: Mechanical allodynia (Electronic Von Frey) in chronic constriction injury model of neuropathic pain; assay type: in vivo, rat; details: MPE ± s.e.m.; 60 minutes after administration; CHF3381 30 mg/kg p.o., morphine 0.1 mg/kg s.c., alone or combined; vehicle 0.15±0.06
Text: The animal model of chronic pain was a slight modification of the chronic constriction injury model of neuropathic pain originally described by Bennett G J et al in Pain 1988, 33, 87-107.
Nerve injured rats were placed on an elevated screen in a clear testing chamber and allowed to acclimate to the testing environment before any measurements were taken. The mechanical stimulus was delivered underneath to the plantar surface of the left hind paw of the rat by using the automated testing device Electronic Von Frey.
A steel rod was pushed against the hind paw with ascending force. The ramping of the force went from 0 to 50 g over a 20 s period. When the animal withdrew its hind paw, the mechanical stimulus was automatically withdrawn and the force at which the animal withdrew its paw was recorded. To quantify the mechanical sensitivity of the hind paws, withdrawal thresholds were taken from five consecutive trials with at least 10 s between each trial. The withdrawal threshold was taken to be the mean of the five trials (baseline value). […]
The values are expressed as Maximum Possible Effect (MPE)±s.e.m
The MPE value was calculated as follow: MPE=(PDR−IBR)/(CBR−IBR), where PDR is the post drug response of the ipsilateral paw, IBR is the ipsilateral paw baseline response and CBR is the contralateral paw baseline response. […]

Neuropathic rats [1] = test: Cold allodynia (chilled metal floor) in chronic constriction injury model of neuropathic pain; assay type: in vivo, rat; details: mean ± s.e.m.; 60 minutes after treatment; 5±1° C. floor; CHF3381 30 mg/kg p.o., morphine 0.1 mg/kg s.c., alone or combined; vehicle 2.90±0.41 s
Experimental: (§1) The animal model of chronic pain was the same of Example 1.
Neuropathic rats were placed upon a metal floor chilled by an underlying water bath (5±1° C.) for a maximum of 20 s. The animals responded to the contact with the cold surface by lifting the paw on the ligated side off the floor. […] For each set of experiments, animals were pre-screened twice with 20 min interval between tests, in order to select animals displaying clear signs of allodynia, i.e. animals with a paw withdrawal latency on the ligated side of <10 s in both trials. […] The latency to paw withdrawal was then determined at 60 minutes after the administration of vehicle, CHF3381 (30 mg/kg p.o.) alone, morphine (0.1 mg/kg s.c.) alone or their combination.

Neuropathic rats [2] = test: Mechanical hyperalgesia (analgesymeter, Randall method) in chronic constriction injury model of neuropathic pain; assay type: in vivo, rat; details: mean ± s.e.m.; CHF3381 30 mg/kg p.o., morphine 0.1 mg/kg s.c., alone or combined; cut-off 500 g; vehicle 105.7±8.2 g
Experimental: as §1
Nerve injured rats developed mechanical hyperalgesia […]. Indeed, in these animals the mean paw threshold was decreased to about 110 g on the ligated side compared to the contralateral side (about 350 g; P<0.01).
Mechanical hyperalgesia was assessed in neuropathic rats by using an analgesymeter according to the method reported in Randall L O et al (Arch Int Pharmacodyn Ther 1957, 111, 409-419). Mechanical nociceptive thresholds were evaluated by measuring paw withdrawal thresholds to an increasing pressure stimulus applied to the distal portion of the plantar surface of the hind paw. The site of the stimulation was on area of the hind paw between the pads at the base of the third and forth digit. A cut-off was set at 500 g to prevent any tissue damage and the endpoint was taken as a complete paw withdrawal.

mice = details: mean ± s.e.m.
Experimental: The animal model of inflammatory was a slight modification of the mouse paw formalin test originally described by Wheeler-Aceto H et al in Psychopharmacology 104, 35-44 (1991). Before formalin injection, mice were placed individually into clear plastic cylinders. After adaptation to the cage, 20 μl of 1% formalin was injected into the plantar surface of the left hind paw. Morphine was administered 30 min before formalin injection.
Mice, divided randomly into eight groups (13-16 animals/group), received treatment once daily for 4 days as follows: groups g1 and g2 received saline, 10 ml/kg i.p.; groups g3 and g4 received morphine 50 mg/kg i.p.; group g5 received morphine 50 mg/kg and CHF3381 30 mg/kg i.p.; group g6 received morphine 50 mg/kg and CHF3381 60 mg/kg i.p. On day 5, the mice received saline (g1 and g3), or morphine 6 mg/kg, i.p. (g2, g4, g5 and g6).
The amount of time, in seconds, the animals spent licking and flinching the injected paw from 10 to 40 min after formalin injection, was used as measurement of pain intensity.
The level of significance was set at P<0.05.

CN1CC[C@]23c4c5ccc(O)c4O[C@H]2[C@@H](O)C=C[C@H]3[C@H]1C5 [morphine]
Maximum Possible Effect (MPE) on paw withdrawal threshold to mechanical stimulation (Nerve injured rats): 0.21±0.07 | mean paw withdrawal latency (cold allodynia) (Neuropathic rats [1]): 5.17 ± 0.86 s | Paw withdrawal threshold (mechanical hyperalgesia) (Neuropathic rats [2]): 105.8 ± 6.0 g | mean licking time, 10 to 40 min after formalin injection (mice; g2: saline i.p. days 1-4, morphine 6 mg/kg i.p. day 5, saline control g1 119.9±17.0): 65.9 ± 18.3 s | mean licking time, 10 to 40 min after formalin injection (mice; g3: morphine 50 mg/kg i.p. days 1-4, saline i.p. day 5): 143.9 ± 19.2 s | licking time, 10 to 40 min after formalin injection (mice; g4: morphine 50 mg/kg i.p. days 1-4, morphine 6 mg/kg i.p. day 5): 112.1 ± 13.4 s
